The assay deals with menin protein (Homo sapiens (Human), UniProt O00255). Kind of assay: biochemical. The class given is binding. As to conditions: FP competitive binding, menin protein 4 nM, FAM-MM2 probe 2 nM; for IC50: read-out: Menin Binding Affinity IC50. Put shortly: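 Competitive fluorescence polarization assay using FAM-labelled MLL1 peptide probe FAM-MM2 (2 nM final) preincubated with menin (4 nM final) in PBS with 0.02% bovine γ-globulin, 4% DMSO and 0.01% Triton X-100. Compounds were added and incubated 30 min at room temperature. IC50 came from nonlinear regression of competition curves, with Ki also derived.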
Chain of menin protein (O00255 whole entry): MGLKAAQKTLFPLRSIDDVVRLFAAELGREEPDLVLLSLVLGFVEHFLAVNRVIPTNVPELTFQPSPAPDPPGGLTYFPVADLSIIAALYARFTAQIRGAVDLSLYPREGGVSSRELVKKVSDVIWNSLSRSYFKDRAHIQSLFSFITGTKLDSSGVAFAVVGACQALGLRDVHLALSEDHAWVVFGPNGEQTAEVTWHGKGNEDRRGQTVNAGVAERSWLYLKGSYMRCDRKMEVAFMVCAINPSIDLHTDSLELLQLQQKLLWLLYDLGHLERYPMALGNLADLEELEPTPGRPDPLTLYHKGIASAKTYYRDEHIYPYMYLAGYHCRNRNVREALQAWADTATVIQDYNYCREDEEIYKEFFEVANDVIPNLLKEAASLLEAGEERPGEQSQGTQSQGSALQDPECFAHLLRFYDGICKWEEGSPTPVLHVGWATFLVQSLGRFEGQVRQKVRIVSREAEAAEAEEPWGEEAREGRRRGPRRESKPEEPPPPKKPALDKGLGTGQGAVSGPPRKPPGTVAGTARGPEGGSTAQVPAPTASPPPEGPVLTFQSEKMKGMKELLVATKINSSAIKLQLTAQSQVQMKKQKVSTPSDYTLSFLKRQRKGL

As to `CNC(=O)O[C@@H]1CCC[C@H]1C(C#N)(c1ccccc1)C1CCN(CC2CN(c3ccc(S(=O)(=O)c4nn(C)cc4Br)cc3)C2)CC1` (mixture of isomers) [compound 229, rac-(1R,2S)-2-((1-((1-(4-((4-bromo-1-methyl-1H-pyrazol-3-yl)sulfonyl)phenyl)azetidin-3-yl)methyl)piperidin-4-yl)(cyano)(phenyl)methyl) cyclopentyl methylcarbamate], the IC50 amounted to 0.16 µM.
`CS(=O)(=O)c1ccc(N2CC(CN3CCC(C4(C5CCCC5)C(=O)N(Cc5ccccc5)Cc5ccccc54)CC3)C2)cc1` (stereo not drawn) [compound 25, 2-benzyl-4-cyclopentyl-4-(1-((1-(4-(methylsulfonyl)phenyl)azetidin-3-yl)methyl)piperidin-4-yl)-1,4-dihydroisoquinolin-3(2H)-one]: the IC50 came to 2.7 µM.
With `O=S(=O)(c1ccc(N2CC(CN3CCC(C4(C5CCCC5)CN(CCF)Cc5ccccc54)CC3)C2)cc1)C1CC1` (stereo not drawn) [compound 47, 4-cyclopentyl-4-(1-((1-(4-(cyclopropylsulfonyl)phenyl)azetidin-3-yl)methyl)piperidin-4-yl)-2-(2-fluoroethyl)-1,2,3,4-tetrahydroisoquinoline], the IC50 was 0.137 µM.
With `CN1COCN([C@@H]2CCC[C@H]2C(C#N)(c2ccccc2)C2CCN(CC3CN(c4ccc(S(=O)(=O)c5ccncc5)cc4)C3)CC2)C1=O` (mixture of isomers) [compound 280, rac-2-((1S,2R)-2-(5-methyl-4-oxo-1,3,5-oxadiazinan-3-yl)cyclopentyl)-2-phenyl-2-(1-((1-(4-(pyridin-4-ylsulfonyl)phenyl)azetidin-3-yl)methyl)piperidin-4-yl)acetonitrile], the concentration for half-maximal inhibition (IC50) worked out at 1.4 µM.
`CS(=O)(=O)CO[C@H]1CCC[C@@H]1C(C#N)(c1ccccc1)C1CCN(CC2CN(c3ccc(S(=O)(=O)c4ccncc4)cc3)C2)CC1` (mixture of isomers) [compound 253, rac-2-((1R,2S)-2-((methylsulfonyl)methoxy)cyclopentyl)-2-phenyl-2-(1-((1-(4-(pyridin-4-ylsulfonyl)phenyl)azetidin-3-yl)methyl)piperidin-4-yl)acetonitrile]: the IC50 is 14.4 µM.
On to `COC[C@@H]1CCC[C@H]1C(C#N)(c1ccccc1)C1CCN(CC2CN(c3ccc(S(=O)(=O)C4CC4)cc3)C2)CC1` (mixture of isomers) [compound 266, rac-2-(1-((1-(4-(cyclopropylsulfonyl)phenyl)azetidin-3-yl)methyl)piperidin-4-yl)-2-((1R,2R)-2-(methoxymethyl)cyclopentyl)-2-phenylacetonitrile], for which the IC50 amounted to 4.5 µM.
Regarding `CC(=O)OC[C@@H]1CCC[C@H]1C(C#N)(c1ccccc1)C1CCN(CC2CN(c3ccc(S(=O)(=O)C4CC4)cc3)C2)CC1` (mixture of isomers) [compound 262, rac-((1R,2R)-2-(cyano(1-((1-(4-(cyclopropylsulfonyl)phenyl)azetidin-3-yl)methyl)piperidin-4-yl)(phenyl)methyl)cyclopentyl) methyl acetate], the IC50 is 6.9 µM.
Consider `FCC1(CF)CC(N2CCC(C3(C4CCCC4)NCCc4ccccc43)CC2)C1` (stereo not drawn) [compound 56, 1-(1-(3,3-bis(fluoromethyl)cyclobutyl)piperidin-4-yl)-1-cyclopentyl-1,2,3,4-tetrahydroisoquinoline], for which the IC50 stood at 18.2 µM.
On to `CO[C@@H]1CCC[C@H]1C(C#N)(c1ccccc1)C1CCN(CCCOc2ccc(C#N)cc2)CC1` (mixture of isomers) [compound 175, rac-4-(3-(4-(cyano((1S,2R)-2-methoxycyclopentyl)(phenyl)methyl)piperidin-1-yl)propoxy)benzonitrile], for which the IC50 was 8.8 µM.
On to `CC(=O)O[C@@H]1CCC[C@H]1C1(C2CCN(CC3CN(c4ccc(S(=O)(=O)C5CC5)cc4)C3)CC2)CN(C)Cc2ccccc21` (mixture of isomers) [compound 204, rac-(1R,2S)-2-(4-(1-((1-(4-(cyclopropylsulfonyl)phenyl)azetidin-3-yl)methyl)piperidin-4-yl)-2-methyl-1,2,3,4-tetrahydroisoquinolin-4-yl)cyclopentyl acetate], for which the IC50 was 0.122 µM.
For `N#Cc1ccc(OCCCN2CCC(C(CN)(c3ccccc3)C3CCCC3)CC2)cc1` (stereo not drawn) [compound 39, 4-(3-(4-(2-amino-1-cyclopentyl-1-phenylethyl)piperidin-1-yl)propoxy)benzonitrile], the IC50 was 0.124 µM.
For the compound `COC(=O)N[C@H]1CCC[C@@H]1C(C#N)(c1ccccc1)C1CCN(CC2CN(c3ccc(C(F)(F)F)cc3)C2)CC1` (mixture of isomers) [compound 401, methyl rac-((1S,2R)-2-(cyano(phenyl)(1-((1-(4-(trifluoromethyl)phenyl)azetidin-3-yl)methyl)piperidin-4-yl)methyl)cyclopentyl) carbamate], the IC50 is 0.089 µM.
`c1ccc2c(c1)CCNC2(C1CCCC1)C1CCNCC1` (stereo not drawn) [compound 72, 1-cyclopentyl-1-(piperidin-4-yl)-1,2,3,4-tetrahydroisoquinoline]: the IC50 came to 610 µM.
Still for that read-out and setting: under `CS(=O)(=O)CO[C@@H]1CCC[C@H]1C(C#N)(c1ccccc1)C1CCN(CC2CN(c3ccc(S(=O)(=O)c4ccncc4)cc3)C2)CC1` (mixture of isomers) [compound 254, rac-2-((1S,2R)-2-((methylsulfonyl)methoxy)cyclopentyl)-2-phenyl-2-(1-((1-(4-(pyridin-4-ylsulfonyl)phenyl)azetidin-3-yl)methyl)piperidin-4-yl)acetonitrile] stands 23.2 µM; under `CN1COCN([C@H]2CCC[C@@H]2C(C#N)(c2ccccc2)C2CCN(CC3CN(c4ccc(S(=O)(=O)c5ccncc5)cc4)C3)CC2)C1=O` (mixture of isomers) [compound 279, rac-2-((1R,2S)-2-(5-methyl-4-oxo-1,3,5-oxadiazinan-3-yl)cyclopentyl)-2-phenyl-2-(1-((1-(4-(pyridin-4-ylsulfonyl)phenyl)azetidin-3-yl)methyl)piperidin-4-yl)acetonitrile], 0.065 µM.
On the same count and under the same terms, in the case of `CC(C)CC1(C2CCN(CCCOc3ccc(C#N)cc3)CC2)NCCc2ccccc21` (stereo not drawn) [compound 242, 4-(3-(4-(1-isobutyl-1,2,3,4-tetrahydroisoquinolin-1-yl)piperidin-1-yl)propoxy)benzontrile] it was 2.1 µM; in that of `COC(=O)N[C@@H]1CCC[C@H]1C(C#N)(c1ccccc1)C1CCN(CC2CN(c3ccc(S(=O)(=O)c4cnn(C)c4)cc3)C2)CC1` (mixture of isomers) [Cpd. No. 350, methyl (rac-(1R,2S)-2-(cyano(1-((1-(4-((1-methyl-1H-pyrazol-4-yl)sulfonyl)phenyl)azetidin-3-yl)methyl)piperidin-4-yl)(phenyl)methyl)cyclopentyl)carbamate], 1.2 µM; in that of `N#Cc1ccc(OCCCN2CCC(C3(C4CCCS4(=O)=O)NCCc4ccccc43)CC2)cc1` (stereo not drawn) [compound 304, 4-(3-(4-(1-(1,1-dioxidotetrahydrothiophen-2-yl)-1,2,3,4-tetrahydroisoquinolin-1-yl)piperidin-1-yl)propoxy)benzonitrile], 10.7 µM.
With `CC(C)C(=O)O[C@H]1CCC[C@@H]1C(C#N)(c1ccccc1)C1CCN(CC2CN(c3ccc(S(=O)(=O)c4ccncc4)cc3)C2)CC1` (mixture of isomers) [compound 193, rac-(1S,2R)-2-(cyano(phenyl)(1-((1-(4-(pyridin-4-ylsulfonyl)phenyl)azetidin-3-yl)methyl)piperidin-4-yl)methyl)cyclopentyl isobutyrate], the IC50 is 0.237 µM.
Turning to `N#Cc1ccc(OCCN2CCC(CC3(C4CCCC4)NCCc4ccccc43)CC2)cc1` (stereo not drawn) [compound 105, 4-(2-(4-((1-cyclopentyl-1,2,3,4-tetrahydroisoquinolin-1-yl)methyl)piperidin-1-yl)ethoxy)benzonitrile], the IC50 turned out to be 20.2 µM.
In the case of `N#Cc1ccc(N2CCCC(CN3CCC(C4(C5CCCC5)NCCc5ccccc54)CC3)C2)cc1` (stereo not drawn) [compound 115, 4-(3-((4-(1-cyclopentyl-1,2,3,4-tetrahydroisoquinolin-1-yl)piperidin-1-yl)methyl)piperidin-1-yl)benzonitrile], the IC50 stood at 4 µM.
Regarding `CS(=O)(=O)CCC(C#N)(c1ccccc1)C1CCN(CCCOc2ccc(C#N)cc2)CC1` (stereo not drawn) [compound 303, 4-(3-(4-(1-cyano-3-(methylsulfonyl)-1-phenylpropyl)piperidin-1-yl)propoxy)benzonitrile], the IC50 is 75.3 µM.
As to `CN1Cc2cccc(Cl)c2C(C2CCCC2)(C2CCN(CCCOc3ccc(C#N)cc3)CC2)C1` (stereo not drawn) [compound 34, 4-(3-(4-(5-chloro-4-cyclopentyl-2-methyl-1,2,3,4-tetrahydroisoquinolin-4-yl)piperidin-1-yl)propoxy)benzonitrile], the IC50 was 1.8 µM.
As for `CO[C@@H]1CCC[C@H]1C(C#N)(c1ccccc1)C1CCN(CC2CN(c3ccc(S(C)(=O)=O)cc3)C2)CC1` (mixture of isomers) [compound 180, rac-2-((1S,2R)-2-methoxycyclopentyl)-2-(1-((1-(4-(methylsulfonyl)phenyl)azetidin-3-yl)methyl)piperidin-4-yl)-2-phenylacetonitrile], the IC50 worked out at 9.7 µM.
As to `CN1CCc2ccccc2C1(C1CCCC1)C1CN(CCCCCOc2ccc(C#N)cc2)C1` (stereo not drawn) [compound 63, 4-((5-(3-(1-cyclopentyl-2-methyl-1,2,3,4-tetrahydroisoquinolin-1-yl)azetidin-1-yl)pentyl)oxy)benzonitrile], the IC50 was found to be 6 µM.
Consider `CNC(=O)C[C@@H]1CCC[C@H]1C(C#N)(c1ccccc1)C1CCN(CC2CN(c3ccc(S(=O)(=O)c4ccncc4)cc3)C2)CC1` (mixture of isomers) [compound 339, rac-2-((1S,2R)-2-(cyano(phenyl)(1-((1-(4-(pyridin-4-ylsulfonyl)phenyl)azetidin-3-yl)methyl)piperidin-4-yl)methyl)cyclopentyl)-N-methylacetamide], for which the IC50 came out at 5.2 µM.
On to `O=S(=O)(c1ccc(-n2ccc(CN3CCC(C4(C5CCCC5)NCCc5c(F)cccc54)CC3)c2)cc1)C1CC1` (stereo not drawn) [compound 123, 1-cyclopentyl-1-(1-((1-(4-(cyclopropylsulfonyl)phenyl)-1H-pyrrol-3-yl)methyl)piperidin-4-yl)-5-fluoro-1,2,3,4-tetrahydroisoquinoline], for which the “Menin Binding Affinity IC50 (μM)” value is recorded as “No inhibition”.

As a reminder, the IC50 is the concentration needed to halve the response being measured.

These data come from patent US10899738B2 (THE REGENTS OF THE UNIVERSITY OF MICHIGAN, priority 2016, dated 2021).
